From patent US5129937A, “Pyridyloxypyrimidine derivatives, preparation process thereof, and herbicidal compositions containing the same as active ingredients” (Mitsui Toatsu Chemicals Incorporated, priority 1989, dated 1992)

Key:
[1] = test system: Crabgrass (Digitaria adsendens); experiment: Upland Foliar Application Test; assay type: in vivo; settings: 30 g ai/a; foliar application at 2-3 leaf stage, emulsion; observed on the 30th day
Source text: (§1) Resin-made 1/10000-are pots were filled with the soil of an upland field. Redroot pigweed, morningglory (Ipomoea pupurea), common lambsquarters, foxtail meadow, johnsongrass, barnyardgrass, green foxtail, large crabgrass, soybean, corn and cotton were separately seeded and were allowed to germinate in a green house. When each plant grew to the stage of 2-3 leaves, an emulsion formulated from a predetermined amount of each test compound in a similar manner to the method described in Formulation Example 11 was diluted with water and then sprayed at a predetermined application rate by means of a pressure-operated ULV (ultra low volume) sprayer. The application rate was controlled at 5 l per are. Influence to the crops and weeds were observed on the 30th day after the spray of the herbicides. The results are shown in Table 4 in which the degree of damages of each test plant and the degree of injury to each crop are shown in a similar manner to Test 2.

Redroot Pigweed = experiment: Upland Foliar Application Test; assay type: in vivo; settings: 30 g ai/a; foliar application at 2-3 leaf stage, emulsion; observed on the 30th day
Source text: as §1

Foxtail meadow = experiment: Upland Foliar Application Test; assay type: in vivo; settings: 30 g ai/a; foliar application at 2-3 leaf stage, emulsion; observed on the 30th day
Source text: as §1

[2] = test system: Foxtail (Setaria viridis); experiment: Upland Foliar Application Test; assay type: in vivo; settings: 30 g ai/a; foliar application at 2-3 leaf stage, emulsion; observed on the 30th day
Source text: as §1

[3] = test system: Barnyardgrass (Echinochloa crus-galli); experiment: Upland Foliar Application Test; assay type: in vivo; settings: 30 g ai/a; foliar application at 2-3 leaf stage, emulsion; observed on the 30th day
Source text: as §1

Johnsongrass = experiment: Upland Foliar Application Test; assay type: in vivo; settings: 30 g ai/a; foliar application at 2-3 leaf stage, emulsion; observed on the 30th day
Source text: as §1

Common lambsquarters = experiment: Upland Foliar Application Test; assay type: in vivo; settings: 30 g ai/a; foliar application at 2-3 leaf stage, emulsion; observed on the 30th day
Source text: as §1

[4] = test system: ALS (acetolactate synthase); experiment: ALS (Acetolactate Synthase) Inhibition Test, barnyardgrass enzyme; assay type: biochemical; settings: enzymoreaction inhibition rate at 10 ppm (5 μg/0.5 ml)
Description: To determine the selectivity in enzyme level between crops and weeds, an ALS inhibition test was conducted using pea as a representative of broadleaf crops and barnyardgrass as a representative of gramineous weeds.
After seeds of pea and barnyardgrass were allowed to germinate at 25° C. for 8-14 days in a dark place, partially-purified suspensions (Suspensions A) of acetolactate syntase were separately obtained from seedlings in accordance with the method described in the literature, Plant Physiology, 75, 827-831. In a test tube, […], followed by the addition of 0.15 ml of a 20 mM K2 HPO4 solution and 0.25 ml of a reaction substrate medium which consisted of 40 mM of K2 HPO4, 40 mM of sodium pyruvate, 1 mM of TPP, 1 mM of MgCl2 and 20 μM of FAD so that 0.4 ml of a reaction solution (Solution B) was prepared. Added to 0.4 ml of Solution B was 0.1 ml of Suspension A. After the resultant mixture was shaken for 1 hour in a thermostat water bath controlled at 30° C., 50 μl of 6N sulfuric acid were added to terminate the reaction.
Next, the reaction-terminated liquid mixture was transferred into a thermostat water bath controlled at 60° C. and was heated for 15 minutes. Thereafter, 0.5 ml of a 0.5% creatine solution and 0.5 ml of a 5% alkaline α-naphthol solution were added, and the resultant mixture was maintained at 60° C. for 15 minutes. As a result, the test solution developed a pink-red color. After the above operation, the absorbance of the test solution at 525 nm was measured by a spectrophotometer (Absorbance 1 of Test Compound).
On the other hand, the absorbance (Absorbance 2 of Blank) of a solution obtained by subjecting a portion of Solution B, said portion being free of the test compound, to the above operation and the absorbance (Absorbance 3 of sulfuric acid terminated) of another solution obtained by subjecting another portion of Solution B, said portion containing 50 μl of 6N sulfuric acid as a test compound, were measured at the same time. […] [formula]

Rice (Oryza sativa) = experiment: Submerged Soil Treatment Test (Growth Stage Treatment), crop injury; assay type: in vivo; settings: 30 g ai/a, growth stage treatment (barnyardgrass two-leaf stage), granule, transplanted rice, observed 30 days later
Description: (§2) 1/5000-are Wagner pots were filled with soil. Seeds or tubers of barnyardgrass, bulrush and Sagittaria pygmaea were seeded or planted under submerged condition. Two pairs of rice seedlings (2-3 leaf stage), which had been reared in advance, were transplanted to each pot and were allowed to grow in a green house. Each pair consisted of two rice seedlings. When the barnyardgrass grew to the two-leaf stage, each pot was treated with a granule which had been prepared by processing a predetermined amount of the test composition in accordance with a similar method to the method described in Formulation Example 9. The state of emergence of weeds and the state of injury of rice were observed 30 days later. In the table, the degrees of damages of the test plants and the degrees of injury of the rice are shown in a similar manner to Example 2.

[5] = test system: Arrowhead sp. (Sagittaria pygmaea); experiment: Submerged Soil Treatment Test (Pre-Emergence Treatment); assay type: in vivo; settings: 30 g ai/a, granule, observed 30 days later
Description: as §2, with “allowed to germinate in a” for “allowed to grow in a”, “rice seedlings. On day later (before emergence of weeds), each pot” for “rice seedlings. When the barnyardgrass grew to the two-leaf stage, each pot”, “injury of rice are” for “injury of the rice are”

[6] = test system: Bulrush (Scirpus juncoides); experiment: as above; assay type: in vivo; settings: 30 g ai/a, granule, observed 30 days later
Description: as §2, with “allowed to germinate in a” for “allowed to grow in a”, “rice seedlings. On day later (before emergence of weeds), each pot” for “rice seedlings. When the barnyardgrass grew to the two-leaf stage, each pot”, “injury of rice are” for “injury of the rice are”

[7] = test system: Barnyardgrass (Echinochloa crus-galli); experiment: as above; assay type: in vivo; settings: 30 g ai/a, granule, observed 30 days later
Description: as §2, with “allowed to germinate in a” for “allowed to grow in a”, “rice seedlings. On day later (before emergence of weeds), each pot” for “rice seedlings. When the barnyardgrass grew to the two-leaf stage, each pot”, “injury of rice are” for “injury of the rice are”

Corn (Zea maize) = experiment: Upland Foliar Application Test, crop injury; assay type: in vivo; settings: 30 g ai/a; foliar application at 2-3 leaf stage, emulsion; observed on the 30th day
Source text: as §1

Soybean (Glycine max) = experiment: Upland Foliar Application Test, crop injury; assay type: in vivo; settings: 30 g ai/a; foliar application at 2-3 leaf stage, emulsion; observed on the 30th day
Source text: as §1

[8] = test system: Cotton (Gossypium indicum); experiment: Upland Foliar Application Test, crop injury; assay type: in vivo; settings: 30 g ai/a; foliar application at 2-3 leaf stage, emulsion; observed on the 30th day
Source text: as §1

| SMILES | Herbicidal effects Crabgrass (Digitaria adsendens) [1] | Herbicidal effects Redroot Pigweed (Redroot Pigweed) | Herbicidal effects Foxtail meadow (Foxtail meadow) | Herbicidal effects Foxtail (Setaria viridis) [2] | Herbicidal effects Barnyardgrass (Echinochloa crus-galli) [3] | Herbicidal effects Johnsongrass (Johnsongrass) | Herbicidal effects Common lambquarters (Common lambsquarters) | Inhibition rate (%) Barnyardgrass [4] | Crop injury Rice (Oryza sativa) (Rice (Oryza sativa)) | Herbicidal effects Arrowhead sp. (Sagittaria pygmaea) [5] | Herbicidal effects Bulrush (Scirpus juncoides) [6] | Herbicidal effects Barnyardgrass (Echinochloa crus-galli) [7] | Crop injury Corn (Zea maize) (Corn (Zea maize)) | Crop injury Soybean (Glycine max) (Soybean (Glycine max)) | Crop injury Cotton (Gossypium indicum) [8] |
| --- | --- | --- | --- | --- | --- | --- | --- | --- | --- | --- | --- | --- | --- | --- | --- |
| COc1cc(OC)nc(Oc2cccnc2C(OC)OC(C)C)n1 (stereo not drawn) [Compound No. 5, 3-(4.6-dimethoxy-2-pyrimidinyloxy)-2-pyridinecarboxaldehyde isopropylmethylacetal] | 4 (6-10 (Severe damages)) | 5 (0-5 (Death)) | 5 (0-5 (Death)) | 5 (0-5 (Death)) | 5 (0-5 (Death)) | 5 (0-5 (Death)) | 4 (6-10 (Severe damages)) | 100% | 0 (91-100 (No damages)) | 5 (0-5 (Death)) | 5 (0-5 (Death)) | 5 (0-5 (Death)) | 0 (91-100 (No damages)) | 0 (91-100 (No damages)) | 0 (91-100 (No damages)) |
| COc1cc(OC)nc(Oc2cccnc2C2OCCO2)n1 [Compound No. 6] | 4 (6-10 (Severe damages)) | 5 (0-5 (Death)) | 5 (0-5 (Death)) | 4 (6-10 (Severe damages)) | 4 (6-10 (Severe damages)) | 5 (0-5 (Death)) | 4 (6-10 (Severe damages)) | 96% | 0 (91-100 (No damages)) | 5 (0-5 (Death)) | 5 (0-5 (Death)) | 5 (0-5 (Death)) | 0 (91-100 (No damages)) | 0 (91-100 (No damages)) | 0 (91-100 (No damages)) |
| COc1cc(OC)nc(Oc2cccnc2C2OCC(C)O2)n1 (stereo not drawn) [Compound No. 7] | 4 (6-10 (Severe damages)) | 5 (0-5 (Death)) | 5 (0-5 (Death)) | 5 (0-5 (Death)) | 5 (0-5 (Death)) | 5 (0-5 (Death)) | 4 (6-10 (Severe damages)) | 87% | 0 (91-100 (No damages)) | 4 (6-10 (Severe damages)) | 5 (0-5 (Death)) | 5 (0-5 (Death)) | 0 (91-100 (No damages)) | 0 (91-100 (No damages)) | 0 (91-100 (No damages)) |
| COc1cc(OC)nc(Oc2cccnc2C2OCCCO2)n1 [Compound No. 8] | 3 (11-40 (Medium damages)) | 4 (6-10 (Severe damages)) | 4 (6-10 (Severe damages)) | 4 (6-10 (Severe damages)) | 4 (6-10 (Severe damages)) | 5 (0-5 (Death)) | 4 (6-10 (Severe damages)) | 86% | 0 (91-100 (No damages)) | 4 (6-10 (Severe damages)) | 4 (6-10 (Severe damages)) | 5 (0-5 (Death)) | 0 (91-100 (No damages)) | 0 (91-100 (No damages)) | 0 (91-100 (No damages)) |
